Measurements published in patent US20250197409A1, “BIFUNCTIONAL COMPOUND AND PHARMACEUTICAL COMPOSITION COMPRISING THE BIFUNCTIONAL COMPOUND, AND METHOD FOR TREATING ANDROGEN RECEPTOR RELATED DISEASE BY USING THE SAME” (ANHORN MEDICINES CO., LTD., priority 2022, published 2025).
Like-named read-outs stand apart in the source and are kept apart here.

Target: T1, androgen receptor (Homo sapiens, UniProt P10275, T878A)
T1 construct: host or cells: LNCaP.FGC
Assay: Androgen receptor degradation assay using Western blot analysis
Assay type: cell-based
How it was run: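 LNCaP.FGC cells (2×10^5/well) treated with 10-fold serial dilutions in RPMI from 100 nM stock; untreated cells as negative control. AR Western signal normalized to GAPDH, expressed as % remaining versus untreated (100%). DC50 derived from calibration curve of serial dilutions.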

[1] = 24 h, read-out: Androgen Receptor Remaining (%), LNCaP.FGC cells, 100 nM, 24 hr, normalized to GAPDH, untreated cells = 100%
[2] = read-out: AR DC50 (concentration needed for 50% AR degradation); LNCaP.FGC cells, serial 10x dilutions from 100 nM
[3] = 24 h, LNCaP.FGC cells, 100 nM, 24 hr, normalized to GAPDH, untreated cells = 100%; read-out: Androgen Receptor Remaining (%)
[4] = LNCaP.FGC cells, serial 10x dilutions from 100 nM; read-out: AR DC50 (concentration needed for 50% AR degradation)
[5] = LNCaP.FGC cells, 100 nM, 24 hr, normalized to GAPDH, untreated cells = 100%

T1 sequence (P10275 whole entry T878A): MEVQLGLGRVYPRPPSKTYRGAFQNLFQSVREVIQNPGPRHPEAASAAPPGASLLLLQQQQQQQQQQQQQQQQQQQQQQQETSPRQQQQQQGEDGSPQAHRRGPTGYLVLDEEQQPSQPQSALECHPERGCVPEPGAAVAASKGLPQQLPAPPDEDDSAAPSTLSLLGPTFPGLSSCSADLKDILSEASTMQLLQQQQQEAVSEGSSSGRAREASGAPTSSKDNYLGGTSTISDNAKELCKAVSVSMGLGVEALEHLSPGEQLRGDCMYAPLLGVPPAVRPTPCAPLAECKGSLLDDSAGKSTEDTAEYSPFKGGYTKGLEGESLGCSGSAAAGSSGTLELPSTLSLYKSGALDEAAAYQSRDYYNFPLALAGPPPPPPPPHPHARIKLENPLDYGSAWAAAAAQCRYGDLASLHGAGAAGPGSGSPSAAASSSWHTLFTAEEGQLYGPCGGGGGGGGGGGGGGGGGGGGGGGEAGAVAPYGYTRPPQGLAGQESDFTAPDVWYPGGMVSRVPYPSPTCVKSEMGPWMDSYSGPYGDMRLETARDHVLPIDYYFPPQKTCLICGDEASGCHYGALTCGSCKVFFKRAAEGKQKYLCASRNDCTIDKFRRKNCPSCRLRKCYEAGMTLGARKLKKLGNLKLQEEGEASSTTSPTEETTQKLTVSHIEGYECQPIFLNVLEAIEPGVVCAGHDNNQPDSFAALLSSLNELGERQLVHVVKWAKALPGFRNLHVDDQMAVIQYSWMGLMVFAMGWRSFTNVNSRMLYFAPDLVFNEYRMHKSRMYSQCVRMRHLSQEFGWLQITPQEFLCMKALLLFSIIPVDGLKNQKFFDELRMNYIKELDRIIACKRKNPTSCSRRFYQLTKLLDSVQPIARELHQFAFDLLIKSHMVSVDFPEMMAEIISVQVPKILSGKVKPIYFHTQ
T1 sequence (Q96SW2 whole entry partner): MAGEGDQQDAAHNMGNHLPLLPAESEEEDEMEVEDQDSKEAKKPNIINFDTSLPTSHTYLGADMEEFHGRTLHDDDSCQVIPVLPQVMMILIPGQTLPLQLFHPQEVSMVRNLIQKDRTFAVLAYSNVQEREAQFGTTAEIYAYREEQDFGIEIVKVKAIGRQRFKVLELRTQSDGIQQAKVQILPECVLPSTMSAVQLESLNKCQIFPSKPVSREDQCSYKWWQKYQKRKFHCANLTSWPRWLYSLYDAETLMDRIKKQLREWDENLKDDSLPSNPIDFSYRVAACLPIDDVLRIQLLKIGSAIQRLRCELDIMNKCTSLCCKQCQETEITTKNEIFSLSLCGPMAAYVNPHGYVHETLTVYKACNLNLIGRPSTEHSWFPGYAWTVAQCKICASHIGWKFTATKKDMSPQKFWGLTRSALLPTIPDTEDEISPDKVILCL

## CCn1c2c(c3ccc(OCCN4CCN(c5ccc(N6C(=S)N(c7ccc(C#N)c(C(F)(F)F)c7)C(=O)C6(C)C)cc5)CC4)cc31)C(=O)N(C1CCC(=O)NC1=O)C2=O (centres unmarked) [Compound 118]
[1]
  remaining activity at 0.1 µM: 80%

## CCn1c2c(c3ccc(OCCN4CCN(c5ccc(C(=O)N[C@H]6CC[C@H](N(C)c7ccc(C#N)c(Cl)c7)CC6)nn5)CC4)cc31)C(=O)N(C1CCC(=O)NC1=O)C2=O (some centres unmarked) [Compound 79]
[1]
  remaining activity at 0.1 µM: 60%

## Cn1c2c(c3ccc(OCCCOC4CC5(CCN(c6ccc(C(=O)N[C@H]7CC[C@H](N(C)c8ccc(C#N)c(Cl)c8)CC7)nn6)C5)C4)cc31)C(=O)N(C1CCC(=O)NC1=O)C2=O (some centres unmarked) [Compound 178]
[2]
  DC50: 10 to 25 nM

## CCn1c2c(c3ccc(OCCOCC4CCN(c5ccc(C(=O)N[C@H]6CC[C@H](N(C)c7ccc(C#N)c(Cl)c7)CC6)nn5)CC4)cc31)C(=O)N(C1CCC(=O)NC1=O)C2=O (some centres unmarked) [Compound 137]
[1]
  remaining activity at 0.1 µM: 1%
[2]
  DC50: 25 to 100 nM

## Cn1c2c(c3ccc(OCCCN4CCC5(CC4)CN(c4ccc(C(=O)N[C@H]6CC[C@H](Oc7ccc(C#N)c(Cl)c7)CC6)nn4)C5)cc31)C(=O)N(C1CCC(=O)NC1=O)C2=O (some centres unmarked) [Compound 92]
[3]
  remaining activity at 0.1 µM: 6%
[4]
  DC50: 25 to 100 nM

## CN(c1ccc(C#N)c(Cl)c1)[C@H]1CC[C@H](NC(=O)c2ccc(N3CC4(CCN(CCOc5ccc6c7c(n(CC(F)F)c6c5)C(=O)N(C5CCC(=O)NC5=O)C7=O)CC4)C3)nn2)CC1 (some centres unmarked) [Compound 108]
[1]
  remaining activity at 0.1 µM: 19%

## CCn1c2c(c3ccc(OCCN4CCCN(c5ccc(C(=O)N[C@H]6C(C)(C)[C@H](Oc7ccc(C#N)c(Cl)c7)C6(C)C)nn5)CC4)cc31)C(=O)N(C1CCC(=O)NC1=O)C2=O (some centres unmarked) [Compound 53]
[1]
  remaining activity at 0.1 µM: 77%

## CCn1c2c(c3ccc(OCCCN4CCC5(CC4)CCN(c4ccc(C(=O)N[C@H]6CC[C@H](N(C)c7ccc(C#N)c(Cl)c7)CC6)nn4)CC5)cc31)C(=O)N(C1CCC(=O)NC1=O)C2=O (some centres unmarked) [Compound 181]
[2]
  DC50: < 10 nM

## CCn1c2c(c3ccc(OCCCN4CCN(c5ccc(C(=O)N[C@H]6CC[C@H](Oc7ccc(C#N)c(Cl)c7)CC6)cn5)CC4)cc31)C(=O)N(C1CCC(=O)NC1=O)C2=O (some centres unmarked) [Compound 26]
[1]
  remaining activity at 0.1 µM: 75%

## CCn1c2c(c3ccc(OCC(C)COC4CCN(c5ccc(C(=O)N[C@H]6CC[C@H](Oc7ccc(C#N)c(Cl)c7)CC6)nn5)CC4)cc31)C(=O)N(C1CCC(=O)NC1=O)C2=O (some centres unmarked) [Compound 36]
[2]
  DC50: 10 to 25 nM

## CCn1c2c(c3ccc(OCCCN4CCC(C5CCN(c6ccc(C(=O)N[C@H]7CC[C@H](N(C)c8ccc(C#N)c(Cl)c8)CC7)nn6)CC5)CC4)cc31)C(=O)N(C1CCC(=O)NC1=O)C2=O (some centres unmarked) [Compound 167]
[1]
  remaining activity at 0.1 µM: 78%

## CCn1c2c(c3ccc(OC4CCN(CC5CCN(c6ccc(C(=O)N[C@H]7CC[C@H](Oc8ccc(C#N)c(Cl)c8)CC7)nn6)CC5)CC4)cc31)C(=O)N(C1CCC(=O)NC1=O)C2=O (some centres unmarked) [Compound 203]
[2]
  DC50: < 10 nM

## CC1(C)[C@H](NC(=O)c2ccc(N3CCN(CCOc4ccc5c6c(sc5c4)C(=O)N(C4CCC(=O)NC4=O)C6=O)CC3)cn2)C(C)(C)[C@H]1Oc1ccc(C#N)c(Cl)c1 (some centres unmarked) [Compound 18]
[5]
  Androgen Receptor Remaining (%): 99%

## Cn1c2c(c3ccc(OCCCN4CCN(c5ccc(C(=O)N[C@H]6C(C)(C)[C@H](Oc7ccc(C#N)c(Cl)c7)C6(C)C)cn5)CC4)cc31)C(=O)N(C1CCC(=O)NC1=O)C2=O (some centres unmarked) [Compound 8]
[3]
  remaining activity at 0.1 µM: 22%
[4]
  DC50: 10 to 25 nM

## Cn1c2c(c3ccc(OCCN4CC=C(c5ccc(C(=O)N[C@H]6CC[C@H](Oc7ccc(C#N)c(Cl)c7)CC6)nn5)CC4)cc31)C(=O)N(C1CCC(=O)NC1=O)C2=O (some centres unmarked) [Compound 197]
[4]
  DC50: 10 to 25 nM

## CCn1c2c(c3ccc(OCCCOC4CC5(CCN(c6ccc(C(=O)N[C@H]7CC[C@H](Oc8ccc(C#N)c(Cl)c8)CC7)nn6)CC5)C4)cc31)C(=O)N(C1CCC(=O)NC1=O)C2=O (some centres unmarked) [Compound 172]
[2]
  DC50: 25 to 100 nM

## CCn1c2c(c3ccc(OCCN4CCC5(CCN(c6ccc(C(=O)N[C@H]7CC[C@H](Oc8ccc(C#N)c(Cl)c8)CC7)nn6)C5)C4)cc31)C(=O)N(C1CCC(=O)NC1=O)C2=O (some centres unmarked) [Compound 133]
[1]
  remaining activity at 0.1 µM: 1%
[2]
  DC50: 10 to 25 nM

## Cn1c2c(c3cccc(OCCCN4CCN(c5ccc(C(=O)N[C@H]6CC[C@H](Oc7ccc(C#N)c(Cl)c7)CC6)nn5)CC4)c31)C(=O)N(C1CCC(=O)NC1=O)C2=O (some centres unmarked) [Compound 43]
[3]
  remaining activity at 0.1 µM: 26%
[4]
  DC50: 25 to 100 nM

## Cn1c2c(c3ccc(OCC4CCN(c5ccc(C(=O)N[C@H]6CC[C@H](Oc7ccc(C#N)c(Cl)c7)CC6)cn5)CC4)cc31)C(=O)N(C1CCC(=O)NC1=O)C2=O (some centres unmarked) [Compound 35]
[3]
  remaining activity at 0.1 µM: 75%

## CCn1c2c(c3ccc(OC(C)CCN4CCN(c5ccc(C(=O)N[C@H]6CC[C@H](Oc7ccc(C#N)c(Cl)c7)CC6)nn5)CC4)cc31)C(=O)N(C1CCC(=O)NC1=O)C2=O (some centres unmarked) [Compound 209]
[2]
  DC50: 10 to 25 nM

## CCn1c2c(c3ccc(OCCCN4CCN(c5ccc(C(=O)N[C@H]6CC[C@H](Oc7ccc(C#N)c(Cl)c7)CC6)nn5)C[C@H]4C)cc31)C(=O)N(C1CCC(=O)NC1=O)C2=O (some centres unmarked) [Compound 74]
[1]
  remaining activity at 0.1 µM: 40%
[2]
  DC50: 25 to 100 nM

## N#Cc1ccc(O[C@H]2CC[C@H](NC(=O)c3ccc(N4CCN(CCCOc5ccc6c7c(n(CO)c6c5)C(=O)N(C5CCC(=O)NC5=O)C7=O)CC4)nn3)CC2)cc1Cl (some centres unmarked) [Compound 85]
[1]
  remaining activity at 0.1 µM: 20%
[2]
  DC50: 25 to 100 nM

## CCn1c2c(c3ccc(OCCCN4CC5(CCN(c6ccc(C(=O)N[C@H]7CC[C@H](Oc8ccc(C#N)c(Cl)c8)CC7)nn6)CC5)C4)cc31)C(=O)N(C1CCC(=O)N(COCC[Si](C)(C)C)C1=O)C2=O (some centres unmarked) [Compound 94]
[1]
  remaining activity at 0.1 µM: 89%

## CCn1c2c(c3ccc(OCC(=O)N4CC5(CCN(c6ccc(C(=O)N[C@H]7CC[C@H](N(C)c8ccc(C#N)c(Cl)c8)CC7)nn6)C5)C4)cc31)C(=O)N(C1CCC(=O)N(CO)C1=O)C2=O (some centres unmarked) [Compound 145]
[1]
  remaining activity at 0.1 µM: 62%

## CCn1c2c(c3ccc(OCC(C)CN4CCN(c5ccc(C(=O)N[C@H]6CC[C@H](Oc7ccc(C#N)c(Cl)c7)CC6)nn5)CC4)cc31)C(=O)N(C1CCC(=O)NC1=O)C2=O (some centres unmarked) [Compound 192]
[2]
  DC50: 25 to 100 nM

## Cn1c2c(c3ccc(OCCOC4CCN(c5ccc(C(=O)N[C@H]6CC[C@H](Oc7ccc(C#N)c(Cl)c7)CC6)nn5)CC4)cc31)C(=O)N(C1CCC(=O)NC1=O)C2=O (some centres unmarked) [Compound 168]
[3]
  remaining activity at 0.1 µM: 20%
[4]
  DC50: 10 to 25 nM

## CC(COc1ccc2c3c(n(C)c2c1)C(=O)N(C1CCC(=O)NC1=O)C3=O)CN1CCN(c2ccc(C(=O)N[C@H]3CC[C@H](Oc4ccc(C#N)c(Cl)c4)CC3)nn2)CC1 (some centres unmarked) [Compound 188]
[4]
  DC50: 25 to 100 nM

## N#Cc1ccc(O[C@H]2CC[C@H](NC(=O)c3ccc(N4CCN(CCCOc5ccc6c7c(n(CC(F)F)c6c5)C(=O)N(C5CCC(=O)NC5=O)C7=O)CC4)nn3)CC2)cc1Cl (some centres unmarked) [Compound 82]
[1]
  remaining activity at 0.1 µM: 35%
[2]
  DC50: 25 to 100 nM

## CC(COc1ccc2c3c(n(C)c2c1)C(=O)N(C1CCC(=O)NC1=O)C3=O)CN1CC=C(c2ccc(C(=O)N[C@H]3CC[C@H](Oc4ccc(C#N)c(Cl)c4)CC3)nn2)CC1 (some centres unmarked) [Compound 200]
[4]
  DC50: 10 to 25 nM

## CCn1c2c(c3ccc(OCC(=O)NCC4CCN(c5ccc(C(=O)N[C@H]6CC[C@H](N(C)c7ccc(C#N)c(Cl)c7)CC6)nn5)CC4)cc31)C(=O)N(C1CCC(=O)C(CO)C1=O)C2=O (some centres unmarked) [Compound 141]
[1]
  remaining activity at 0.1 µM: 49%
[2]
  DC50: 25 to 100 nM

## CCn1c2c(c3ccc(OCCCOC4CCN(c5ccc(C(=O)N[C@H]6CC[C@H](N(C)c7ccc(C#N)c(Cl)c7)CC6)nn5)CC4)cc31)C(=O)N(C1CCC(=O)NC1=O)C2=O (some centres unmarked) [Compound 155]
[1]
  remaining activity at 0.1 µM: 19%
[2]
  DC50: 10 to 25 nM

## CC[C@H]1CN(CCOc2ccc3c4c(n(CC)c3c2)C(=O)N(C2CCC(=O)NC2=O)C4=O)CCN1c1ccc(C(=O)N[C@H]2CC[C@H](Oc3ccc(C#N)c(Cl)c3)CC2)nn1 (some centres unmarked) [Compound 58]
[1]
  remaining activity at 0.1 µM: 65%

## Cn1c2c(c3ccc(OCCCN4CCCN(c5ccc(C(=O)N[C@H]6CC[C@H](Oc7ccc(C#N)c(Cl)c7)CC6)nn5)CC4)cc31)C(=O)N(C1CCC(=O)NC1=O)C2=O (some centres unmarked) [Compound 87]
[3]
  remaining activity at 0.1 µM: 21%
[4]
  DC50: 25 to 100 nM

## CCn1c2c(c3ccc(OCCN4CCC5(CC4)CN(c4ccc(C(=O)N[C@H]6CC[C@H](N(C)c7ccc(C#N)c(Cl)c7)CC6)nn4)C5)cc31)C(=O)N(C1CCC(=O)NC1=O)C2=O (some centres unmarked) [Compound 106]
[1]
  remaining activity at 0.1 µM: 119%

## Cn1c2c(c3ccc(OCCN4CCC(c5ccc(C(=O)N[C@H]6CC[C@H](Oc7ccc(C#N)c(Cl)c7)CC6)nn5)CC4)cc31)C(=O)N(C1CCC(=O)NC1=O)C2=O (some centres unmarked) [Compound 208]
[4]
  DC50: 10 to 25 nM

## CCn1c2c(c3ccc(OCCCOC4CC5(CCN(c6ccc(C(=O)N[C@H]7CC[C@H](Oc8ccc(C#N)c(Cl)c8)CC7)nn6)C5)C4)cc31)C(=O)N(C1CCC(=O)NC1=O)C2=O (some centres unmarked) [Compound 176]
[2]
  DC50: 25 to 100 nM

## CCn1c2c(c3ccc(OCCOCCN4CCN(c5ccc(C(=O)N[C@H]6CC[C@H](Oc7ccc(C#N)c(Cl)c7)CC6)nn5)CC4)cc31)C(=O)N(C1CCC(=O)NC1=O)C2=O (some centres unmarked) [Compound 115]
[5]
  Androgen Receptor Remaining (%): 26%
[2]
  DC50: 25 to 100 nM
